Measured values reported in PubChem BioAssay AID256 (DTP/NCI, 2004).
“And” between values parts separate entries of the source, which are not always exact repeats. Equal entries are not always repeated. Toxic doses and inconclusive results are not listed. The calls were made as follows: active = survival T/C of 150% or more; inactive = T/C below 125% in these data.

System: CD2F1 mice, L1210 leukemia ip, survival T/C
Assay: NCI In Vivo Anticancer Drug Screen. Data for tumor model L1210 Leukemia (intraperitoneal) in CD2F1 (CDF1) mice
Conditions: higher = longer survival
Summary of the method: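 Compound-dosed mice with transplantable tumor versus matched vehicle controls; endpoint ratio T/C reported.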

[1] = endpoint: mean survival time, dose: 50.0 mg/kg/injection, schedule: Q01DX009 (ip), vehicle: saline with Tween-80
[2] = endpoint: mean survival time, dose: 100.0 mg/kg/injection, schedule: Q01DX009 (ip), vehicle: saline with Tween-80
[3] = endpoint: mean survival time, dose: 100.0 mg/kg/injection, schedule: Q04DX003 (ip), vehicle: saline with Tween-80
[4] = endpoint: mean survival time, dose: 200.0 mg/kg/injection, schedule: Q04DX003 (ip), vehicle: saline with Tween-80
[5] = endpoint: mean survival time, dose: 400.0 mg/kg/injection, schedule: Q01DX009 (ip), vehicle: saline with Tween-80
[6] = endpoint: mean survival time, dose: 400.0 mg/kg/injection, schedule: Q04DX003 (ip), vehicle: saline with Tween-80
[7] = endpoint: mean survival time, dose: 200.0 mg/kg/injection, schedule: Q01DX009 (ip), vehicle: saline with Tween-80

Measured: T/C

COc1ccc(C(=O)C(CN(C)C)CN(C)C)cc1
inactive: endpoint: median survival time, dose: 3.12 mg/kg/injection, schedule: Q01DX009 (ip), vehicle: saline 96 % of control | endpoint: median survival time, dose: 6.25 mg/kg/injection, schedule: Q01DX009 (ip), vehicle: saline 103 % of control | endpoint: median survival time, dose: 12.5 mg/kg/injection, schedule: Q01DX009 (ip), vehicle: saline 104 % of control | endpoint: median survival time, dose: 25.0 mg/kg/injection, schedule: Q01DX009 (ip), vehicle: saline 114 % of control

COc1ccc(-c2csc(=[N+]3CCCCC3)s2)cc1
inactive: endpoint: mean survival time, dose: 1.56 mg/kg/injection, schedule: Q01DX009 (ip), vehicle: water 94 % of control and 102 % of control | endpoint: mean survival time, dose: 3.12 mg/kg/injection, schedule: Q01DX009 (ip), vehicle: water 96 % of control and 102 % of control | endpoint: mean survival time, dose: 6.25 mg/kg/injection, schedule: Q01DX009 (ip), vehicle: water 96 % of control and 98 % of control | endpoint: mean survival time, dose: 12.5 mg/kg/injection, schedule: Q01DX009 (ip), vehicle: water 98 % of control and 106 % of control | endpoint: mean survival time, dose: 25.0 mg/kg/injection, schedule: Q01DX009 (ip), vehicle: water 113 % of control and 109 % of control

CCOC(=O)/C(C#N)=C(\C)c1cccc(C)c1
inactive: endpoint: mean survival time, dose: 25.0 mg/kg/injection, schedule: Q01DX009 (ip), vehicle: saline with Tween-80 102 % of control | [1] 98 % of control | [2] 103 % of control | [3] 105 % of control

CC1(C)N=C(N)N=C(N)N1c1ccc(OCC(=O)Nc2ccc(S(=O)(=O)F)cc2)cc1
inactive: endpoint: mean survival time, dose: 50.0 mg/kg/injection, schedule: Q01DX009 (ip), vehicle: saline 111 % of control | endpoint: mean survival time, dose: 100.0 mg/kg/injection, schedule: Q01DX009 (ip), vehicle: saline 109 % of control | endpoint: mean survival time, dose: 200.0 mg/kg/injection, schedule: Q01DX009 (ip), vehicle: saline 115 % of control | endpoint: mean survival time, dose: 300.0 mg/kg/injection, schedule: Q01DX009 (ip), vehicle: saline 115 % of control | endpoint: mean survival time, dose: 400.0 mg/kg/injection, schedule: Q01DX009 (ip), vehicle: saline 121 % of control

NCC1OC(n2cnc3c(N)ncnc32)C(O)C1O (stereo not drawn)
inactive: endpoint: mean survival time, dose: 12.5 mg/kg/injection, schedule: Q01DX005 (ip), vehicle: Klucel (hydroxypropylcellulose) (HPC) 109 % of control | endpoint: mean survival time, dose: 25.0 mg/kg/injection, schedule: Q01DX005 (ip), vehicle: Klucel (hydroxypropylcellulose) (HPC) 107 % of control | endpoint: mean survival time, dose: 50.0 mg/kg/injection, schedule: Q01DX005 (ip), vehicle: Klucel (hydroxypropylcellulose) (HPC) 115 % of control | endpoint: mean survival time, dose: 100.0 mg/kg/injection, schedule: Q01DX005 (ip), vehicle: Klucel (hydroxypropylcellulose) (HPC) 115 % of control

CC1CCOC(C)(C)O1 (stereo not drawn)
inactive: endpoint: mean survival time, dose: 100.0 mg/kg/injection, schedule: Q04DX002 (ip), vehicle: saline 100 % of control | endpoint: mean survival time, dose: 200.0 mg/kg/injection, schedule: Q04DX002 (ip), vehicle: saline 86 % of control | endpoint: mean survival time, dose: 400.0 mg/kg/injection, schedule: Q04DX002 (ip), vehicle: saline 104 % of control

CCOC(=O)C(C)(C)Br
inactive: endpoint: mean survival time, dose: 100.0 mg/kg/injection, schedule: Q01DX009 (ip), vehicle: saline sonified 105 % of control | [2] 102 % of control | [3] 95 % of control and 98 % of control and 103 % of control | endpoint: mean survival time, dose: 200.0 mg/kg/injection, schedule: Q01DX009 (ip), vehicle: saline sonified 100 % of control | [4] 95 % of control and 98 % of control and 100 % of control | endpoint: mean survival time, dose: 400.0 mg/kg/injection, schedule: Q01DX009 (ip), vehicle: saline sonified 106 % of control | [5] 90 % of control | [6] 96 % of control and 103 % of control and 106 % of control

CCCCOc1ccc(/C=N\NC(=O)CNC(=O)Nc2ccc(F)cc2)cc1
inactive: [1] 92 % of control | [2] 88 % of control | [7] 88 % of control

COc1ccc2ccccc2c1
inactive: endpoint: mean survival time, dose: 100.0 mg/kg/injection, schedule: Q01DX001 (ip), vehicle: saline with Tween-80 101 % of control | endpoint: mean survival time, dose: 100.0 mg/kg/injection, schedule: Q04DX003 (ip), vehicle: other 100 % of control | endpoint: mean survival time, dose: 200.0 mg/kg/injection, schedule: Q01DX001 (ip), vehicle: saline with Tween-80 100 % of control | endpoint: mean survival time, dose: 200.0 mg/kg/injection, schedule: Q04DX003 (ip), vehicle: other 104 % of control | endpoint: mean survival time, dose: 400.0 mg/kg/injection, schedule: Q01DX001 (ip), vehicle: saline with Tween-80 111 % of control

O=CC(O)C(O)C(O)CO (stereo not drawn)
inactive: endpoint: mean survival time, dose: 100.0 mg/kg/injection, schedule: Q01DX001 (ip), vehicle: saline 96 % of control | endpoint: mean survival time, dose: 200.0 mg/kg/injection, schedule: Q01DX001 (ip), vehicle: saline 93 % of control | endpoint: mean survival time, dose: 400.0 mg/kg/injection, schedule: Q01DX001 (ip), vehicle: saline 98 % of control

O=c1c(-c2ccccc2)c1-c1ccccc1
inactive: [3] 93 % of control

COC(=O)[C@]1(C)CCC[C@]2(C)[C@H]3CC4OO[C@@]3(CC[C@H]21)[C@H]1O[C@@]41C(C)C
inactive: [2] 97 % of control | endpoint: mean survival time, dose: 125.0 mg/kg/injection, schedule: Q01DX009 (ip), vehicle: Klucel (hydroxypropylcellulose) (HPC) 96 % of control | [7] 101 % of control | endpoint: mean survival time, dose: 250.0 mg/kg/injection, schedule: Q01DX009 (ip), vehicle: Klucel (hydroxypropylcellulose) (HPC) 96 % of control | [5] 98 % of control | endpoint: mean survival time, dose: 500.0 mg/kg/injection, schedule: Q01DX009 (ip), vehicle: Klucel (hydroxypropylcellulose) (HPC) 97 % of control

O=C(Nc1cccc2c1C(=O)c1ccc(Nc3cc(NC(=O)c4ccccc4)c4c(c3)C(=O)c3ccccc3C4=O)cc1C2=O)c1ccccc1
inactive: [2] 106 % of control | [3] 102 % of control | [7] 102 % of control | [4] 102 % of control | [5] 119 % of control | [6] 96 % of control

[O-][n+]1c(Cl)nc(Cl)c(Cl)c1C(Cl)(Cl)Cl
inactive: endpoint: mean survival time, dose: 12.5 mg/kg/injection, schedule: Q04DX003 (ip), vehicle: other 111 % of control | endpoint: mean survival time, dose: 25.0 mg/kg/injection, schedule: Q04DX003 (ip), vehicle: other 103 % of control

O=c1sc(N=Nc2ccccc2)nn1-c1ccccc1
inactive: endpoint: mean survival time, dose: 100.0 mg/kg/injection, schedule: Q04DX003 (ip), vehicle: saline 92 % of control | endpoint: mean survival time, dose: 200.0 mg/kg/injection, schedule: Q04DX003 (ip), vehicle: saline 91 % of control

O=C1Cc2c(nc[nH]c2=O)N1
inactive: endpoint: median survival time, dose: 50.0 mg/kg/injection, schedule: Q01DX005 (ip), vehicle: saline 101 % of control | endpoint: median survival time, dose: 100.0 mg/kg/injection, schedule: Q01DX005 (ip), vehicle: saline 97 % of control | endpoint: median survival time, dose: 200.0 mg/kg/injection, schedule: Q01DX005 (ip), vehicle: saline 92 % of control

CC(C)(C)OC(=O)NC(CCCCNC(=O)C(F)(F)F)C(=O)ON1C(=O)CCC1=O (stereo not drawn)
inactive: endpoint: mean survival time, dose: 25.0 mg/kg/injection, schedule: Q04DX003 (ip), vehicle: saline with Tween-80 102 % of control | endpoint: mean survival time, dose: 50.0 mg/kg/injection, schedule: Q04DX003 (ip), vehicle: saline with Tween-80 102 % of control | [3] 89 % of control and 101 % of control

NC(=O)C(CO)NC(=O)OCc1ccccc1 (stereo not drawn)
inactive: endpoint: mean survival time, dose: 25.0 mg/kg/injection, schedule: Q01DX005 (ip), vehicle: water 103 % of control | endpoint: mean survival time, dose: 50.0 mg/kg/injection, schedule: Q01DX005 (ip), vehicle: water 104 % of control | endpoint: mean survival time, dose: 100.0 mg/kg/injection, schedule: Q01DX005 (ip), vehicle: water 95 % of control | endpoint: mean survival time, dose: 200.0 mg/kg/injection, schedule: Q01DX005 (ip), vehicle: water 97 % of control | endpoint: mean survival time, dose: 400.0 mg/kg/injection, schedule: Q01DX005 (ip), vehicle: water 93 % of control

O=C(O)c1ccc(OCCOc2ccccc2)cc1
inactive: endpoint: mean survival time, dose: 66.0 mg/kg/injection, schedule: Q04DX003 (ip), vehicle: saline sonified 101 % of control | endpoint: mean survival time, dose: 100.0 mg/kg/injection, schedule: Q04DX003 (ip), vehicle: saline sonified 96 % of control | endpoint: mean survival time, dose: 150.0 mg/kg/injection, schedule: Q04DX003 (ip), vehicle: saline sonified 107 % of control

Cc1c[nH]c(=O)c[n+]1[O-]
inactive: [2] 100 % of control | [7] 100 % of control | [5] 97 % of control
